Reference: US7223759B2, “Antibacterial 3,5-diaminopiperidine-substituted aromatic and heteroaromatic compounds” (Anadys Pharmaceuticals, Inc., priority 2003, dated 2007)

System: Escherichia coli (ATCC25922) or Staphylococcus aureus (ATCC25923)
Assay: Antibacterial MIC, microdilution method in Mueller-Hinton medium
Format: cell-based
Conditions: Escherichia coli, 18 h, MIC in E. coli or S. aureus; two-fold serial dilutions 64 to 0.5 μg/ml in duplicate; 18 hours of incubation at 35° C.; read-out: Potency (MIC)
In short: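 Two-fold serial dilutions from 64 to 0.5 μg/ml, in duplicate, by broth microdilution in Mueller-Hinton medium (NCCLS M7-A5). MIC taken as the lowest concentration preventing visible growth after 18 h at 35° C.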

MIC	Structure (SMILES)
> 64 µg/mL	Cc1cc(NS(=O)(=O)c2ccc(Nc3nc(N4C[C@H](N)C[C@H](N)C4)nc(N4C[C@H](N)C[C@H](N)C4)n3)cc2)nc(C)n1.Cl [N-[4-(2,6-dimethyl-pyrimidin-4-ylsulfamoyl)-phenyl]-4,6-Bis-((3R,5S)-3,5-diamino-piperidin-1-yl)-[1,3,5]triazine-2-amine]
> 64 µg/mL	CC(=O)c1ccc(Nc2nc(N3C[C@H](N)C[C@H](N)C3)nc(N3C[C@H](O)C[C@@H](O)C3)n2)cc1 [1-{4-[4-((3R,5S)-3,5-Diamino-piperidin-1-yl)-6-((3R,5R)-3,5-dihydroxy-piperidin-1-yl)-[1,3,5]triazin-2-ylamino]-phenyl}-ethanone]
> 64 µg/mL	N[C@@H]1C[C@H](N)CN(c2nc(Nc3ccc(S(=O)(=O)Nc4ccc5cn[nH]c5c4)cc3)nc(N3CCC(N4CCCC4)CC3)n2)C1 [4-[4-((3S,5R)-3,5-Diamino-piperidin-1-yl)-6-(4-pyrrolidin-1-yl-piperidin-1-yl)-[1,3,5]triazin-2-ylamino]-N-(1H-indazol-6-yl)-benzenesulfonamide]
< 64 µg/mL	Cc1ccc(S(=O)(=O)N(Cc2ccccc2)c2ccc(Nc3nc(C4CCCCC4)nc(N4CCCCC4)n3)cc2O)cc1.Cl [N-{4-[4-((3S,5R)-3-Amino-5-hydroxy-piperidin-1-yl)-6-((3R,5S)-3,5-diamino-piperidin-1-l)-[1,3,5]triazin-2-ylamino]-2-hydroxy-phenyl}-N-benzyl-4-methyl-benzenesulfonamide]
> 64 µg/mL	Cl.c1ccc(Nc2ccccc2Nc2nc(C3CCCCC3)nc(N3CCCCC3)n2)cc1 [N-(2-pohenylamino-phenyl)-4,6-Bis-((3R,5S)-3,5-diamino-piperidin-1-yl)-[1,3,5]triazine-2-amine]
> 64 µg/mL	Cl.NC1C[C@@H](N)CN(c2nc(Nc3ccc(O)cc3[N+](=O)[O-])nc(N3C[C@H](N)C[C@H](N)C3)n2)C1 (stereo in doubt) [N-(4-hydroxy-2-nitro-phenyl)-4,6-Bis-((3R,5S)-3,5-diamino-piperidin-1-yl)-[1,3,5]triazine-2-amine]

Structure (SMILES)	MIC
N[C@@H]1C[C@H](N)CN(c2nc(NNc3ccc([N+](=O)[O-])cc3[N+](=O)[O-])nc(N3C[C@H](N)C[C@H](N)C3)n2)C1 [N-(4,6-Bis-((3R,5S)-3,5-diamino-piperidin-1-yl)-[1,3,5]triazin-2-yl)-N′-(2,4-Dinitro-phenyl)-hydrazine]	> 64 µg/mL

Same assay, conditions: Escherichia coli, 18 h, read-out: Potency (MIC)

Structure (SMILES)	MIC
N[C@@H]1C[C@H](N)CN(c2nc(Nc3ccc(NC(=O)c4cccc(Br)c4)c(O)c3)nc(N3C[C@H](N)C[C@H](N)C3)n2)C1 [N-[4-(3-bromo-benzoylamino)-3-hydroxy-phenyl]-4,6-Bis-((3R,5S)-3,5-diamino-piperidin-1-yl)-[1,3,5]triazine-2-amine]	< 16 µg/mL
COc1ccc(C(=O)Nc2ccc(Nc3nc(N4C[C@H](N)C[C@H](N)C4)nc(N4C[C@H](N)C[C@H](N)C4)n3)cc2)c(O)c1 [N-[4-(2-hydroxy-4-methoxy-benzoylamino)-phenyl]-4,6-Bis-((3R,5S)-3,5-diamino-piperidin-1-yl)-[1,3,5]triazine-2-amine]	> 64 µg/mL
N[C@@H]1C[C@H](N)CN(c2nc(Nc3ccccc3N3CCCCC3)nc(N3C[C@H](N)C[C@H](N)C3)n2)C1 [N-(2-piperidin-1-yl-phenyl)-4,6-Bis-((3R,5S)-3,5-diamino-piperidin-1-yl)-[1,3,5]triazine-2-amine]	> 64 µg/mL
N[C@@H]1C[C@H](N)CN(c2nc(Nc3ccc(NC(=O)c4ccc(Cl)cc4)c(O)c3)nc(NC3CCNCC3)n2)C1	< 16 µg/mL
N[C@@H]1C[C@H](N)CN(c2nc(NCCCn3ccnc3)nc(Nc3ccc(S(=O)(=O)Nc4ccc5cn[nH]c5c4)cc3)n2)C1 [4-[4-((3S,5R)-3,5-Diamino-piperidin-1-yl)-6-(3-imidazol-1-yl-propylamino)-[1,3,5]triazin-2-ylamino]-N-(1H-indazol-6-yl)-benzenesulfonamide]	> 64 µg/mL
NCCN(CCN)c1nc(Nc2ccc(NC(=O)C(=O)c3c[nH]c4ccccc34)c(O)c2)nc(N2C[C@H](N)C[C@H](N)C2)n1 [N-{4-[4-[Bis-(2-amino-ethyl)-amino]-6-((3R,5S)-3,5-diamino-piperidin-1-yl)-[1,3,5]triazin-2-ylamino]-2-hydroxy-phenyl}-2-(1H-indol-3-yl)-2-oxo-acetamide]	< 16 µg/mL
N[C@@H]1C[C@H](N)CN(c2nc(Nc3ccc(C(=O)CC(=O)Nc4ccc5c(c4)OC(F)(F)O5)cc3)nc(N3C[C@@H](N)C[C@H]3CO)n2)C1 [3-{4-[4-((2S,4S)-4-Amino-2-hydroxymethyl-pyrrolidin-1-yl)-6-((3R,5S)-3,5-diamino-piperidin-1-yl)-[1,3,5]triazin-2-ylamino]-phenyl}-N-(2,2-difluoro-benzo[1,3]dioxol-5-yl)-3-oxo-propionamide]	< 16 µg/mL
Cc1ccc(C(=O)Nc2ccc(Nc3nc(N4C[C@H](N)C[C@H](N)C4)nc(N4CCC[C@@H](O)C4)n3)cc2O)cc1 [N-{4-[4-((3R,5S)-3,5-Diamino-piperidin-1-yl)-6-((R)-3-hydroxy-piperidin-1-yl)-[1,3,5]triazin-2-ylamino]-2-hydroxy-phenyl}-4-methyl-benzamide]	> 64 µg/mL
CCN(c1ccc(Nc2nc(N3C[C@H](N)C[C@H](N)C3)nc(N3C[C@H](N)C[C@H](N)C3)n2)cc1)C(C)C [N-[4-(ethyl-isopropyl-amino)-phenyl]-4,6-Bis-((3R,5S)-3,5-diamino-piperidin-1-yl)-[1,3,5]triazine-2-amine]	> 64 µg/mL
CC(=O)c1ccc(Nc2nc(N3C[C@H](N)C[C@H](N)C3)nc(N3C[C@@H](N)C[C@H]3CO)n2)cc1 [1-{4-[4-((2S,4S)-4-Amino-2-hydroxymethyl-pyrrolidin-1-yl)-6-((3R,5S)-3,5-diamino-piperidin-1-yl)-[1,3,5]triazin-2-ylamino]-phenyl}-ethanone]	> 64 µg/mL
NC[C@@H]1C[C@H](CN)CN(c2nc(Nc3ccc(NC(=O)c4ccc5ccccc5c4O)cc3)nc(N3C[C@H](N)C[C@H](N)C3)n2)C1 [1-Hydroxy-naphthalene-2-carboxylic acid {4-[4-((3R,5S)-3,5-bis-(aminomethyl)-piperidin-1-yl)-6-((3R,5S)-3,5-diamino-piperidin-1-yl)-[1,3,5]triazine-2-ylamino]-phenyl}-amide]	< 16 µg/mL
N[C@@H]1C[C@H](N)CN(c2ccc(NC(=O)c3ccc4ccccc4c3O)cc2)C1 [1-Hydroxy-naphthalene-2-carboxylicacid [4-((3S,5R)-3,5-diamino-piperidin-1-yl)-phenyl]-amide]	> 64 µg/mL
N[C@@H]1C[C@H](N)CN(c2nc(Nc3ccc(C(=O)CC(=O)Nc4cccc(Cl)c4)cc3)nc(N3C[C@H](N)C[C@H](N)C3)n2)C1 [N-{4-[2-(3-chloro-phenylcarbamoyl)-acetyl]-phenyl}-4,6-Bis-((3R,5S)-3,5-diamino-piperidin-1-yl)-[1,3,5]triazine-2-amine]	< 16 µg/mL
CC(=O)c1ccc(Nc2nc(N3C[C@H](N)C[C@H](N)C3)nc(N3C[C@H](O)C[C@H]3CN)n2)cc1 [1-{4-[4-((2S,4R)-2-Aminomethyl-4-hydroxy-pyrrolidin-1-yl)-6-((3R,5S)-3,5-diamino-piperidin-1-yl)-[1,3,5]triazin-2-ylamino]-phenyl}-ethanone]	> 64 µg/mL
N[C@@H]1C[C@H](N)CN(c2nc(Nc3ccc(S(N)(=O)=O)cc3)nc(N3C[C@H](N)C[C@H](N)C3)n2)C1 [N-(4-sulfamoyl-phenyl)-4,6-Bis-((3R,5S)-3,5-diamino-piperidin-1-yl)-[1,3,5]triazine-2-amine]	> 64 µg/mL
Cc1cc(O)c(C)c(O)c1C(=O)Nc1ccc(Nc2nc(N3C[C@H](N)C[C@H](N)C3)nc(N3C[C@H](N)C[C@H](N)C3)n2)cc1 [N-[4-(2,4-dihydroxy-3,6-dimethyl-benzoylamino)-phenyl]-4,6-Bis-((3R,5S)-3,5-diamino-piperidin-1-yl)-[1,3,5]triazine-2-amine]	< 16 µg/mL
N[C@@H]1C[C@H](N)CN(c2cc(Nc3ccc(NC(=O)c4ccc5ccccc5c4O)cc3)nc(N3C[C@H](N)C[C@H](N)C3)c2)C1 [1-Hydroxy-naphthalene-2-carboxylic acid [4-(4,6-Bis-((3R,5S)-3,5-diamino-piperidin-1-yl)-pyridin-2-ylamino)-phenyl]-amide]	< 16 µg/mL
N[C@@H]1C[C@H](N)CN(c2nc(Nc3ccc(NC(=O)c4cccc([N+](=O)[O-])c4O)cc3)nc(N3C[C@H](N)C[C@H](N)C3)n2)C1 [N-[4-(2-hydroxy-3-nitro-benzoylamino)-phenyl]-4,6-Bis-((3R,5S)-3,5-diamino-piperidin-1-yl)-[1,3,5]triazine-2-amine]	> 64 µg/mL
N[C@@H]1C[C@H](N)CN(c2nc(Nc3ccc(C(=O)CC(=O)Nc4ccccc4Cl)cc3)nc(N3C[C@@H](O)[C@@H](O)C3)n2)C1 [N-(2-Chloro-phenyl)-3-{4-[4-((3S,5R)-3,5-diamino-piperidin-1-yl)-6-((3R,4S)-3,4-dihydroxy-pyrrolidin-1-yl)-[1,3,5]triazin-2-ylamino]-phenyl}-3-oxo-propionamide]	< 64 µg/mL
COc1cccc(C(=O)Nc2ccc(Nc3nc(N4C[C@H](N)C[C@H](N)C4)nc(N4C[C@H](N)C[C@H](N)C4)n3)cc2)c1O [N-[4-(2-hydroxy-3-methoxy-benzoylamino)-phenyl]-4,6-Bis-((3R,5S)-3,5-diamino-piperidin-1-yl)-[1,3,5]triazine-2-amine]	< 64 µg/mL

Same assay, conditions: MIC in E. coli or S. aureus; two-fold serial dilutions 64 to 0.5 μg/ml in duplicate; 18 hours of incubation at 35° C.

Structure (SMILES)	Potency (MIC)
NC[C@@H]1C[C@H](N)CN1c1nc(Nc2ccc(C(=O)CC(=O)Nc3ccc(F)c(F)c3)cc2)nc(N2C[C@H](N)C[C@H](N)C2)n1 [3-{4-[4-((2S,4S)-4-Amino-2-aminomethyl-pyrrolidin-1-yl)-6-((3R,5S)-3,5-diamino-piperidin-1-yl)-[1,3,5]triazin-2-ylamino]-phenyl}-N-(3,4-difluoro-phenyl)-3-oxco-propionamide]	+ (+ means MIC<64 μg/ml in E. coli or S. aureus)
